Measured values published in PMC5636972 (Cell Death & Disease, 2017).

Experiments:
I-Trp-induced apoptosis = test: Reversal of I-Trp-induced apoptosis by pretreatment with inhibitors (sub-G0 flow cytometry); assay type: cell-based
Procedure: Figure 4 Effect of I-Trp on the levels of intracellular Ca^2+. (a) I-Trp induces intracellular Ca^2+ release in a concentration-dependent manner. Cells were pretreated with BAPTA/AM (negative control) for 1 h, with MCN-A-343 (positive control) or different concentrations of I-Trp and incubated with Fluo-4 for 40 min. After incubation, the fluorescence signal was immediately measured using a fluorescence microplate reader by excitation at 509 nm and emission at 516 nm. (b) Cells were pre-incubated with BAPTA/AM (1–20 μM) for 1 h prior to treatment with EC50 concentrations of I-Trp for 72 h. Cell apoptosis was assessed via PI-based flow cytometric analysis. Data are expressed as mean±S.D. ***P<0.001, significant difference as compared to control. ^#P<0.05, ^##P<0.01 and ^###P<0.001 significant difference as compared to I-Trp alone
Next, we used ERK1/2 inhibitor U0126,[33], [34] JNK inhibitor SP600125,[35], [36] and p38 inhibitor SB203580[37] to confirm the involvement of MAPKs in I-Trp-induced apoptosis. We pretreated the cancer cell lines with 0.5–10 μM U0126, 1–10 μM SP600125, or 1–10 μM SB203580 for 1 h and subsequently treated them with I-Trp to detect the sub-G0 cell accumulation by flow cytometry.
(§1) Cells (3 × 10^5) were fixed in 70% ice-cold EtOH for 30 min at RT. Cells were washed with PBS once and then incubated with propidium iodide (PI) staining solution (PBS containing 0.1 % BSA, 0.1% RNase A, and […] PI) for 30 min at RT in the dark. After the incubation, the cells were analyzed by flow cytometry to assess their DNA content.

MCF-10A cells = test: MTT cell viability assay, non-tumorigenic MCF-10A; assay type: cell-based; details: for EC50: MTT, 72 h, normal cells
Excerpt: (§2) To evaluate the potency of I-Trp in killing these cancer cell lines, we performed MTT assay to determine the cell viability of target cells. […] The cancer cells with higher expression levels of CCT-β were indeed more sensitive to I-Trp.

HCT116 cells = test: MTT cell viability assay, HCT116; assay type: cell-based
Excerpt: as §2

MDA-MB-231 cells [1] = test: MTT cell viability assay, MDA-MB-231; assay type: cell-based; details: for EC50: MTT, 72 h; for killing these cancer cells (in words): MDA-MB-231, MKN-45, HCT116, Colo205, Table 1
Excerpt: as §2

MKN-45 cells = test: MTT cell viability assay, MKN-45; assay type: cell-based
Excerpt: as §2

Colo205 cells = test: MTT cell viability assay, Colo205; assay type: cell-based
Excerpt: as §2

[2] = tested on: CCT-β : β-tubulin complex; test: co-IP with CCT-β antibody, immunoblot for β-tubulin; assay type: cell-based; details: 5 or 10 μM, 6 h; MDA-MB-231, MKN-45, HCT116, Colo205 lysates
Procedure: With GADPH as a protein-loading control, we also confirmed that the input of β-tubulin and CCT-β in the experiments was equal with or without treatment. […] After 24–48 h of I-Trp treatment, cells underwent apoptosis to trigger proteasome activity for cellular protein degradation as reported previously.[14]
(a) Using CCT-β antibody to co-IP the complex, and then detecting the quantity of trapped β-tubulin with western blotting using β-tubulin antibody. […] The cancer cells were treated with I-Trp for the designated time periods. Cell lysates were examined using the proteasome activity assay. (c) The changed expression levels of ER stress protein markers upon I-Trp treatment
The cell lysates (100 μg) were boiled for 5 min in SDS sample buffer (62.5 mM Tris-HCl pH 6.7, 1.25% SDS, 12.5% glycerol, and 2.5% β-mercaptoethanol), and the proteins were separated via SDS-PAGE. For western blotting, proteins were transferred onto a PVDF membrane (Millipore, MA, USA) and incubated with different antibody agents. After incubation with horseradish peroxidase (HRP)-conjugated secondary antibody, immuno-reactive protein bands were visualized using the enhanced chemiluminescence (ECL) system (Amersham Bioscience, Tokyo, Japan).

microtubules = tested on: microtubules; design: method as in PMID 19690144; details: cited from earlier work
[3] = tested on: MDA-MB-231, MKN-45, HCT116, and Colo205 cells; test: Long-term colony formation assay; assay type: cell-based; details: 0.31 to 2.5 μM, 7 days
Excerpt: Next, we investigated the long-term effect of I-Trp on proliferation of the target cells using the colony formation assay.

β-tubulin = tested on: β-tubulin; design: method as in PMID 19690144; details: cited from earlier work
[4] = tested on: MDA-MB-231, MKN-45, HCT116, and Colo205 cells; test: PI-based flow cytometric sub-G0 apoptosis assessment; assay type: cell-based; details: 72 h, different concentrations, the four cancer cell lines
Procedure: as §1

MDA-MB-231 cells [5] = test: as above; assay type: cell-based; details: MDA-MB-231 with CCT-β shRNA clones, 10 μM, 72 h
Procedure: as §1

proteasome activity = test: Proteasome activity assay in cell lysates; assay type: cell-based
Procedure: After being treated with I-Trp for designated time periods, cells were collected and resuspended in cell lysis buffer (BioVision). Aliquots of cell lysates (100 μg) were incubated with 1 μM of fluorescent proteasome substrate (BioVision) for 30 min at 37 °C. The fluorescent intensity was read using a fluorimeter with an exciting wavelength at 355 nm and emission wavelength at […] and presented as relative proteasome activity.

intracellular Ca^2+ = test: Fluo-4 intracellular Ca2+ assay; assay type: cell-based; details: the four cancer cell lines, Fluo-4, 40 min
Procedure: We used a Fluo-4 direct calcium assay kit from Invitrogen (catalog item F10471) to measure the intracellular calcium response to I-Trp in target cancer cell lines. Cancer cell lines were cultured in 96-well plates with media containing 10% FBS. After reaching confluence, cancer cells were treated with MCN-A-343 (positive control), BATPA (negative control), or I-Trp and incubated with Fluo-4 direct calcium reagent loading solution for 40 min. After incubation, the fluorescence signal was immediately measured using a fluorescence microplate reader at excitation and emission of 509 and 516 nm, respectively.

caspases = test: Caspase activity assay (fluorescent substrates); assay type: cell-based; details: EC50 concentrations, 72 h, the four cancer cell lines
Procedure: The caspase activity assay was performed according to the manufacturer’s guidelines (BioVision). Briefly, cell lysates (200 μg) were diluted in 50 μl of cell lysis buffer (supplied by the kit). Equal volumes of the 2 × reaction buffer (supplied by the kit) containing 10 mM DTT were added to the cell lysates. Subsequently, 50 μM of fluorescent dye-conjugated caspase substrate was individually added to the designated caspase activity assay. After a 2-h incubation, free fluorescent dyes in the solution were read in a fluorimeter equipped with a 385-nm excitation filter and 510-nm emission filter.

CCT-β and β-tubulin mRNA = test: Real time qPCR for CCT-β and β-tubulin mRNA; assay type: cell-based; details: HCT116, MKN-45, MDA-MB-231, Colo205
Excerpt: Mean values ± S.D. from three independent samples are shown. The RT-PCR experiments reveal that the mRNA levels of CCT-β and β-tubulin were not changed after I-Trp treatment in the tested cancer cells.

Row | Structure (SMILES) | EC50 (HCT116 cells; 72 h) [µM] | EC50 (MDA-MB-231 cells [1]) [µM] | EC50 (MKN-45 cells; 72 h) [µM] | EC50 (Colo205 cells; 72 h) [µM] | EC50 (MCF-10A cells) [µM] | other results
1 | N#CC(=C(/N)Sc1ccccc1N)/C(C#N)=C(/N)Sc1ccccc1N [Compound U0126] | – | – | – | – | – | reversal of I-Trp-induced apoptosis (I-Trp-induced apoptosis; MKN-45 cells, 0.5–10 μM pretreatment 1 h): could not reverse the I-Trp-induced apoptosis
2 | COC(=O)C(Cc1c[nH]c2ccccc12)NC(=O)C(F)(F)F (stereo not drawn) [Compound 1g] | > 20 | > 20 | > 20 | > 20 | > 20 | –
3 | COC(=O)[C@@H](Cc1c[nH]c2ccccc12)NC(=O)CI [I-Trp] | 0.88 | 2.5 | 1.27 | 0.9 | > 20 | toxicity to MCF-10A (in words) (MCF-10A cells; MCF-10A): non-toxic; disruption of the CCT-β : β-tubulin complex (trapped β-tubulin) [2]: disrupted the CCT-β : β-tubulin complex; effect on polymerization/depolymerization of microtubules (microtubules): does not affect the polymerization/depolymerization of microtubules; colony formation [3]: formed more diffuse or smaller colonies; covalent modification of β-tubulin (β-tubulin): alkylate Cys^354 of β-tubulin; sub-G0 cell accumulation [4]: dose-dependent sub-G0 cell accumulation; cell death (sub-G0) after knockdown of CCT-β (MDA-MB-231 cells [5]): significantly (P<0.001) reduced cell death from I-Trp exposure; proteasome activities (proteasome activity; MDA-MB-231 cells): less apparent; proteasome activities (proteasome activity; MKN-45, HCT116, and Colo205 cells): elevated in an I-Trp dose-dependent manner; intracellular Ca^2+ mobilization (intracellular Ca^2+): induced the intracellular Ca^2+ mobilization in a dose-dependent manner; activities of caspases-2 to -9 (caspases): enhanced; mRNA levels of CCT-β and β-tubulin (CCT-β and β-tubulin mRNA): not changed
4 | COC(=O)C1Cc2c([nH]c3ccccc23)C(c2ccccc2)N1C(=O)CI (stereo not drawn) [Compound 4] | – | – | – | – | – | EC50 (MCF-10A cells; Homo sapiens, MCF-10A): ~20 µM; toxicity relative to doxorubicin on MCF-10A (MCF-10A cells; MCF-10A): significantly less (~fivefold) toxic compared to doxorubicin; EC50 (HCT116 cells; Homo sapiens, HCT-116, 72 h): 0.54 µM; EC50 (MDA-MB-231 cells [1]; Homo sapiens, MDA-MB-231): 0.59 µM; potency relative to doxorubicin (MDA-MB-231 cells [1]; cancer cell lines of Table 1): slightly less (~twofold) potent than doxorubicin; EC50 (MKN-45 cells; Homo sapiens, MKN-45, 72 h): 1.6 µM; EC50 (Colo205 cells; Homo sapiens, COLO 205, 72 h): 0.99 µM
5 | COC(=O)C(Cc1c[nH]c2ccccc12)NC(=O)CC#N (stereo not drawn) [Compound 1h] | > 20 | > 20 | > 20 | > 20 | > 20 | –
6 | COc1cccc2c1C(=O)c1c(O)c3c(c(O)c1C2=O)C[C@@](O)(C(=O)CO)C[C@@H]3O[C@H]1C[C@H](N)[C@H](O)[C@H](C)O1 [Doxorubicin, reference compound] | – | – | – | – | – | EC50 (MCF-10A cells; Homo sapiens, MCF-10A): 3.8 µM; EC50 (HCT116 cells; Homo sapiens, HCT-116, 72 h): 0.26 µM; EC50 (MDA-MB-231 cells [1]; Homo sapiens, MDA-MB-231): 0.46 µM; EC50 (MKN-45 cells; Homo sapiens, MKN-45, 72 h): 0.24 µM; EC50 (Colo205 cells; Homo sapiens, COLO 205, 72 h): 0.5 µM
7 | COC(=O)C1Cc2c([nH]c3ccccc23)C(c2ccccc2)N1C(=O)CCl (stereo not drawn) [Compound 3] | – | – | – | – | – | EC50 (MCF-10A cells; Homo sapiens, MCF-10A): > 20 µM; EC50 (HCT116 cells; Homo sapiens, HCT-116, 72 h): 3.3 µM; EC50 (MDA-MB-231 cells [1]; Homo sapiens, MDA-MB-231): 2.7 µM; killing these cancer cells (in words) (MDA-MB-231 cells [1]): effectively killed cancer cells; EC50 (MKN-45 cells; Homo sapiens, MKN-45, 72 h): 4.7 µM; EC50 (Colo205 cells; Homo sapiens, COLO 205, 72 h): 8.1 µM
8 | Oc1c2ccccc2c2c3c(cccc13)N=N2 [SP600125] | – | – | – | – | – | reversal of I-Trp-induced apoptosis (I-Trp-induced apoptosis; MDA-MB-231 and HCT116 cells, 1–10 μM pretreatment 1 h): could not reverse I-Trp-induced apoptosis
9 | COC(=O)C(Cc1c[nH]c2ccccc12)NC(=O)CC(F)(F)F (stereo not drawn) [Compound 1f] | > 20 | > 20 | > 20 | > 20 | > 20 | –
10 | COC(=O)C(Cc1c[nH]c2ccccc12)NC(=O)C(Cl)Cl (stereo not drawn) [Compound 1d] | > 20 | > 20 | > 20 | > 20 | > 20 | –
11 | C[S+]([O-])c1ccc(-c2nc(-c3ccncc3)c(-c3ccc(F)cc3)[nH]2)cc1 (stereo not drawn) [SB203580] | – | – | – | – | – | reversal of I-Trp-induced apoptosis (I-Trp-induced apoptosis; 1–10 μM pretreatment 1 h, the cancer cell lines): reduced the percentage of I-Trp-induced apoptotic cells

Second part, led by results:

Row | EC50 (HCT116 cells; 72 h) [µM] | EC50 (MDA-MB-231 cells [1]) [µM] | EC50 (MKN-45 cells; 72 h) [µM] | EC50 (Colo205 cells; 72 h) [µM] | Structure (SMILES) | EC50 (MCF-10A cells) [µM] | other results
12 | 20.9 | > 20 | 14.1 | 15.9 | COC(=O)C(Cc1c[nH]c2ccccc12)NC(=O)C[N+](=O)[O-] (stereo not drawn) [Compound 1e] | > 20 | –
13 | > 20 | 19.5 | > 20 | > 20 | COC(=O)C(Cc1c[nH]c2ccccc12)NC(=O)CCl (stereo not drawn) [Compound 1c] | > 20 | killing these cancer cells (in words) (MDA-MB-231 cells [1]): mostly inactive
14 | 1.1 | 3.75 | 2.5 | 1.6 | COC(=O)C(Cc1c[nH]c2ccccc12)NC(=O)CBr (stereo not drawn) [Compound 1b] | > 20 | killing these cancer cells (in words) (MDA-MB-231 cells [1]): almost equipotent as I-Trp (1a)
